Test results published in patent USRE36385E, “Glucopyranose derivatives” (Ono Pharmaceutical Co., Ltd., priority 1985, dated 1999).
Where two headings read alike, the source gives them in different places.

How the values were obtained:
[1] = system: lympha cells; assay: Mitogenic activity in vitro (Blastogenic index); format: cell-based, C3H/He male mice; details: Mus musculus, Lymphocyte
Protocol: (1) Mitogenic activity in vitro
Mitogenic activity means activity of activating mitogenic cell division, and in this test system, the amount of tymidine taken into lympha cells was measured and a ratio determined against a blank control call (Blastogenic index) was calculated.
For example, adding the compound prepared in example 1(c) to the test system induced 30 times the amount of tymidine taken into the lympha cells versus the control.
The amounts were measured by density of a radiolabel.
Mytogenic activity in vitro was measured by the following method (See Procedure Method of Immunoexperiment pp 315 published by Japan Immunology Society).
C3H/He male mice 6 weeks old were killed by bloodletting, and their spleens were isolated and homogenized. Homogenizing liquids were filtered with gauze, and suspending cells were prepared with PBS solution. After washing, lymphacytes fractions were gathered with lympholight M. Lymphacytes were suspended in RPMI 1640 cultivation solution (10% FEBS), and the solution was divided into 5×10^5 cells/180 μl/wells. Ten times concentration of the terminal concentration (1 μg/ml) of the compounds of the present invention were added with 20 μl portions to each of the wells.
After cultivation, ^3 H-tymidine 0.5 μCi/20 μl was added to the each cells. Cultivation was continued at 37° C. for another 24 hrs, and amounts of ^3 H-tymidine taken into the cells were measured. Mitogenic activities were calculated as by Blastogenic index in as follows. [formula]

[2] = system: Mice L-M cells; assay: Inducing activities of TNF in vitro (cytotoxicity of serum from treated mice); format: cell-based, mice (ICR male mice serum; mice L-M cells); details: Mus musculus, iv; 10 μg via tail vein, serum 90 mins after; L-M cells 48 hrs; read-out: Cytotoxicities
Protocol: (2) Inducing activities of TNF in vitro
Inducing activity of TNF in vitro was measured by the following test system.
Corye parvum (manufactured by Ribi Immuno Chem. Research Inc.) was administered in ICR male mice 6-weeks old through the tail vein as priming agent. Ten days later, the compounds of the present invention (10 μg) were administered through tail vein as eliciting agent. 90 mins after the administration, blood was collected from the hearts, and blood serums were separated.
Mice L-M cells (10^4 /100 μl/well) suspended in a mixture of the diluted serum solution (100 μl/well) and RPMI 1640 cultivating solution (10% FEBS and 0.2% glucose; manufactured by Nissui Pharmaceutical Co.) were cultivated in an atmosphere of a mixed gas of 5% CO2 -[…], for 48 hrs at 37° C., after adding ^3 H-tymidine taken (0.5 μCi/20 μl/well). Amounts of ^3 H-tymidine taken into cells during the cultivation were measured.
Inducing activities of TNF were measured by cytotoxicity calculated as follows: [formula]

[3] = Acute toxicity (LD50), intravenous in mice; details: mouse, in vivo
Protocol: For example, the values of LD50 of the compound prepared in example 1(c) was more than 300 mg/kg animal body weight by intravenous administration in mice.

[4] = system: Meth-A sarcoma; assay: Anti-tumor effect on Balb/C mice inoculated with Meth-A Sarcoma; format: in vivo, female Balb/C mice; details: for Apperarent tumor weight: g ± standard error; for Survival period: iv tail vein Day 7, 9, 12, day ± standard error
Protocol: (1) Anti-tumor effect on Balb/C mice inocudlated with Meth-A Sarcoma
Anti-tumor effect was measured by the following procedure.
Tumor cells which had been maintained in ascites of Balb/C mouse generation after generation was used. One group is consisting of eight female Balb/C mice. Meth-A sarcoma tumor (1×10^5 cells/0.05 ml) was inoculated into left side of female mice of 7-week old (body weight: 18-20 g). Seven day after, when tumor size came to 6~9 mm, test compound was administered into tail vein first (day 7) and then administered two times (total three times: Day 7, 9, 12). Dose of test compound is 3 and 10 mg/kg or 3, 10 and 30 mg/kg and each test compound solution volume was 10 ml/kg. Anti-tumor effect is estimated by survival period (from inoculation day to death day) and tumor apparent weight. [formula] Test results about survival period and tumor appearent weight are shown in the following Tables II(1) and II(2), respectively.
In experiments, statistic analysis was done with unpaired Student's t(two tailed)-test. […] P values lower than 0.05 were judged to be significant.

[5] = terminal concentration 1 μg/ml, ratio of 3H-tymidine uptake vs blank control, read-out: Blastgenic Index

SMILES: CCCCCCCCCCC[C@@H](CC(=O)N[C@H]1C(O)O[C@H](CO)[C@@H](OS(=O)(=O)O)[C@@H]1OC(=O)CCCCCCCCc1ccccc1)OC(=O)CCCCCCCCc1ccccc1 (stereo partly drawn) [1(c), 2-deoxy-2-[3S-(9-phenylnonanoyloxy)tetradecanoyl]amino-3-O-(9-phenylnonanoyl)-4-O-sulfo-D-glucopyranose]
- fold induction at 1 µg/mL ([1]; compound added to the test system, 1 μg/ml, read-out: amount of tymidine taken into the lympha cells versus the control): 30
- fold induction at 1 µg/mL [1, 5]: 30
- cytotoxicity at 0.01 mg [2]: 86%
- LD50 [3]: > 300 mg/kg
- Apperarent tumor weight ([4]; 3 mg/kg iv, Day 7): 0.200 ± 0.074 g
- Apperarent tumor weight ([4]; 3 mg/kg iv, Day 10): 0.240 ± 0.118 g
- Apperarent tumor weight ([4]; 3 mg/kg iv, Day 13): 0.314 ± 0.206 g
- Apperarent tumor weight ([4]; 3 mg/kg iv, Day 16): 0.580 ± 0.412 g
- Apperarent tumor weight ([4]; 10 mg/kg iv, Day 7): 0.199 ± 0.044 g
- Apperarent tumor weight ([4]; 10 mg/kg iv, Day 10): 0.156 ± 0.084 g
- Apperarent tumor weight ([4]; 10 mg/kg iv, Day 13): 0.120 ± 0.099 g
- Apperarent tumor weight ([4]; 10 mg/kg iv, Day 16): 0.208 ± 0.253 g
- effect on prolongation of life ([4]; at the dose of 10 mg/kg): significant effect
- effect on tumore regression ([4]; at the dose of 10 mg/kg): significant effect
- Survival period ([4]; dose 3 (mg/kg)): 46.8 ± 6.3 days
- Survival period ([4]; dose 10 (mg/kg)): 62.8 ± 18.8 days

SMILES: O=C(C[C@H](CCCCCCc1ccccc1)OC(=O)CCCCCCCCc1ccccc1)N[C@H]1C(O)O[C@H](CO)[C@@H](OS(=O)(=O)O)[C@@H]1OC(=O)CCCCCCCCc1ccccc1 (stereo partly drawn) [1(r), 2-deoxy-2-[3S-(9-phenylnonanoyloxy)-9-phenylnonanoyl]amino-3-O-(9-phenylnonanoyl)-4-O-sulfo-D-glucopyranose]
- fold induction at 1 µg/mL [1, 5]: 17
- cytotoxicity at 0.01 mg [2]: 86%

SMILES: CCCCCCCCCCC[C@H](CC(=O)N[C@H]1C(O)O[C@H](CO)[C@@H](OS(=O)(=O)O)[C@@H]1OC(=O)CCCCCCCCc1ccccc1)OC(=O)CCCCCCCCc1ccccc1 (stereo partly drawn) [1(h), 2-deoxy-2-[3R-(9-phenylnonanoyloxy)tetradecanoyl]amino-3-O-(9-phenylnonanoyl)-4-O-sulfo-D-glucopyranose]
- fold induction at 1 µg/mL [1, 5]: 37
- cytotoxicity at 0.01 mg [2]: 81%

SMILES: CCCCCCCCCCC[C@@H](CC(=O)N[C@H]1C(O)O[C@H](CO)[C@@H](OS(=O)(=O)O)[C@@H]1OC(=O)CCCCCCCCc1ccc(Cl)cc1)OC(=O)CCCCCCCCc1ccc(Cl)cc1 (stereo partly drawn) [1(j), 2-deoxy-2-[3S-[9-(4-chlorophenyl)nonanoyloxy]tetradecanoyl]amino-3-O-[9-(4-chlorophenyl)nonanoyl]-4-O-sulfo-D-glucopyranose]
- fold induction at 1 µg/mL [1, 5]: 25
- cytotoxicity at 0.01 mg [2]: 69%

SMILES: CCCCCCCCCCCCCC(=O)O[C@H]1[C@H](OS(=O)(=O)O)[C@@H](CO)OC(O)[C@@H]1NC(=O)c1ccc(OCCCCCCCCCC)c(OCCCCCCCCCC)c1 (stereo partly drawn) [Example 4, 2-deoxy-2-(3,4-didecyloxybenzoyl)amino-3-O-tetradecanoyl-4-O-sulfo-D-glycopyranose]
- fold induction at 1 µg/mL [1, 5]: 27.7
- cytotoxicity at 0.01 mg [2]: 20%
- Apperarent tumor weight ([4]; 3 mg/kg iv, Day 7): 0.212 ± 0.042 g
- Apperarent tumor weight ([4]; 3 mg/kg iv, Day 10): 0.469 ± 0.169 g
- Apperarent tumor weight ([4]; 3 mg/kg iv, Day 13): 0.650 ± 0.162 g
- Apperarent tumor weight ([4]; 3 mg/kg iv, Day 16): 1.004 ± 0.434 g
- Apperarent tumor weight ([4]; 10 mg/kg iv, Day 7): 0.205 ± 0.022 g
- Apperarent tumor weight ([4]; 10 mg/kg iv, Day 10): 0.361 ± 0.056 g
- Apperarent tumor weight ([4]; 10 mg/kg iv, Day 13): 0.455 ± 0.116 g
- Apperarent tumor weight ([4]; 10 mg/kg iv, Day 16): 0.846 ± 0.233 g
- effect on prolongation of life ([4]; at the dose of 3 mg/kg): significant effect
- effect on tumore regression ([4]; at the dose of 3 mg/kg): significant effect
- Survival period ([4]; dose 3 (mg/kg)): 48.5 ± 8.7 days
- Survival period ([4]; dose 10 (mg/kg)): 46.6 ± 7.2 days

SMILES: CCCCCCCCCCCCCC(=O)OC(CCCCCCCCCCC)CC(=O)N[C@H]1COC[C@@H](OS(=O)(=O)O)[C@@H]1OC(=O)CCCCCCCCCCCCC (single isomer, unassigned) [3(b), 2-deoxy-2-[3-tetradecanoyloxytetradecanoyl]amino-3-O-tetradecanoyl-4-O-sulfo-1,5-anhydro-D-xylitol]
- fold induction at 1 µg/mL [1, 5]: 13.7
- cytotoxicity at 0.01 mg [2]: 30.2%

SMILES: CCCCCCCCCCC[C@H](CC(=O)N[C@H]1CO[C@H](CO)[C@@H](OS(=O)(=O)O)[C@@H]1OC(=O)CCCCCCCCc1ccccc1)OC(=O)CCCCCCCCc1ccccc1 [1(s), 2-deoxy-2-[3R-(9-phenylnonanoyloxy)tetradecanoyl]amino-3-O-(9-phenylnonanoyl)-4-O-sulfo-1,5-anhydro-D-glucitol]
- fold induction at 1 µg/mL [1, 5]: 58
- cytotoxicity at 0.01 mg [2]: 100%

SMILES: CCCCCCCCCCC[C@@H](CC(=O)N[C@H]1C(O)O[C@H](CO)[C@@H](OS(=O)(=O)O)[C@@H]1OC(=O)CCCCCCCCCc1ccccc1)OC(=O)CCCCCCCCCc1ccccc1 (stereo partly drawn) [1(d), 2-deoxy-2-[3S-(10-phenyldecanoyloxy)tetradecanoyl]amino-3-O-(10-phenyldecanoyl)-4-O-sulfo-D-glucopyranose]
- fold induction at 1 µg/mL [1, 5]: 28
- cytotoxicity at 0.01 mg [2]: 95%
